Laboratory results reported in patent publication US20260374836A1, “PALMITOYLATED ANALOGUE OF PROLACTIN-RELEASING PEPTIDE FOR INTRANASAL ADMINISTRATION” (USTAV ORGANICKE CHEMIE A BIOCHEMIE AKADEMIE VED CR, V. V. I., priority 2022, published 2026).
Entries after “also recorded” stand apart in the source; their conditions may differ. Numbered stars: 1 amine (or outer) side, 2 acyl side, 3 side chain; on linkers, the order of the positions; unused ones are H or OH. Side chains are listed from the residue outwards. Ends that are not written are not given here. Peptide text beside a SMILES is read from it. * marks the point of attachment. γGlu = O=C(O)[C@H](CCC(=O)[*:2])N[*:1]; Palmitoyl = CCCCCCCCCCCCCCCC(=O)*

Legend:
[1] = background statement; cited from earlier work
[2] = tested on: mouse and rat models of high-fat diet-induced obesity; details: chronic peripheral administration; cited from earlier work
blood glucose [3] = test: blood glucose after repeated administration to obese C57BL/6N mice on high-fat diet; type: in vivo, mouse (C57BL/6N); details: obese C57BL/6N mice on HFD, IN 0.3 mg/kg repeated
Description: Male C57BL/6 mice (Charles River, Germany) were kept in the accredited animal facility of the Institute of Organic Chemistry and Biochemistry of the CAS, Prague, in the facility of the Academy of Sciences in Krč at a temperature of 22±2 °C and had free access to food and tap water. The light/dark rhythm was 12/12 hours (light onset 4:00). The animals were treated according to the Act on the Protection of Animals against Cruelty (Act No. 246/1992 Coll.). Males were fed at-house-made high-fat diet containing 60% fat (lard), 20% protein and 20% carbohydrate. From 8 weeks of age, they were fed this diet for 4 months. […] The compound was administered SC or IN twice daily 1 hour before lights out for 14 days. Throughout the period, the weight of the mice was monitored 3 times a week.

GPR10 = details: previous studies (EP 3094643); cited from earlier work
[4] = tested on: glycated hemoglobin (HbAlc); test: glycated hemoglobin (HbA1c) in obese WKY rats after 30 days of treatment; type: in vivo, rat (Wistar Kyoto; details: obese WKY rats on HFD
Description: (§1) Male WKY rats (Charles River, Germany) were kept in the accredited animal facility of the Institute of Physiology of the CAS, v.v.i., Prague, in the facility of the Academy of Sciences in Krč at a temperature of 22±2 °C and had free access to food and tap water. The light/dark rhythm was 12/12 hours (light onset 4:00). The animals were treated according to the Act on the Protection of Animals against Cruelty (Act No. 246/1992 Coll.). Males were fed a high-fat diet D12492 (Research Diets, USA) containing 60% fat, 20% protein and 20% carbohydrate. From 8 weeks of age, they were fed this diet for 4 months. They were then divided into groups of 5 animals (IP administration of saline or palm^11-PrRP31 in saline at 5 mg/kg) or 8 animals (IN administration of saline or palm^11-PrRP31 in saline at 0.3 mg/kg). The compound was administered IP or IN once daily 1 hour before lights out for 30 days. Throughout the period, the weight of the rats was monitored 3 times a week and at the end, glycated hemoglobin was measured in blood drawn from the tail. Glycated hemoglobin (HbAlc) was determined using the Tina-quant HbAlc Gen. 3 kit (Roche, Mannheim, Germany).
(§2) Graph-Pad Prism Software (San Diego, CA, USA), one-way ANOVA followed by Dunnett's post-hoc test was used for statistical evaluation. Differences in food intake between individuals injected with saline and those injected with palm^11-PrRP31 were considered statistically significant at P<0.05.

blood glucose [5] = test: blood glucose after repeated administration to obese WKY rats on high-fat diet; type: in vivo, rat (Wistar Kyoto; details: obese WKY rats on HFD, IN 0.3 mg/kg repeated, same extent as IP 5 mg/kg
Description: as §1

obese C57BL/6 mice = test: change in weight after chronic (14 days) SC or IN administration to obese C57BL/6 mice on high-fat diet; type: in vivo, mouse (C57BL/6); details: for body weight change: obese C57BL/6 mice on HFD
Description: Male C57BL/6 mice (Charles River, Germany) were kept in the accredited animal facility of the Institute of Organic Chemistry and Biochemistry of the CAS, Prague, in the facility of the Academy of Sciences in Krč at a temperature of 22±2 °C and had free access to food and tap water. The light/dark rhythm was 12/12 hours (light onset 4:00). The animals were treated according to the Act on the Protection of Animals against Cruelty (Act No. 246/1992 Coll.). Males were fed at-house-made high-fat diet containing 60% fat (lard), 20% protein and 20% carbohydrate. From 8 weeks of age, they were fed this diet for 4 months. They were then divided into groups of 6 animals (SC administration of saline or palm^11-PrRP31 in saline at 5 mg/kg and IN administration of saline or palm^11-PrRP31 in saline at 0.3 mg/kg). The compound was administered SC or IN twice daily 1 hour before lights out for 14 days. Throughout the period, the weight of the mice was monitored 3 times a week.
as §2

obese WKY rats = test: change in weight after chronic (30 days) IP or IN administration to obese WKY rats on high-fat diet; type: in vivo, rat (Wistar Kyoto; details: for weight change: obese WKY rats on HFD, 30 days
Description: as §1, §2

fasted C57BL/6 mice = test: food intake test in fasted mice after SC or IN administration; type: in vivo, mouse (C57BL/6); details: for food intake: fasted mice
Description: Male mice of strain C57BL/6 (Charles River, Germany) were kept in the accredited animal facility of the Institute of Organic Chemistry and Biochemistry of the Academy of Sciences of the Czech Republic (CAS), Prague in the facility of the Academy of Sciences in Krč at a temperature of 22±2 °C and had free access to food and tap water. The rhythm of light/dark was 12/12 h (light onset 6:00). The animals were treated according to the Act on the Protection of Animals against Cruelty (Czech Act No. 246/1992 Coll.). Males were fed a standard Ssniff R/M-H diet (Ssniff Spezialdiäten GmbH, Soest, Germany). 16 h before the application of palm^11-PrRP31, the mice were fasted with free access to water. Application of saline and palm^11-PrRP31 after dissolution in saline was performed by SC at 5 mg/kg (volume 0.15 ml/mouse) or IN using a fine-tip pipette at 0.01 and 0.1 mg/kg (5 μl/mouse). Twenty minutes after peptide injection, mice were given pre-weighed food. The food was then weighed every 30 minutes for 7 hours. The experiment was performed at least twice for each dose of palm^11-PrRP31 and one group of mice consisted of at least 6 mice. The results are expressed as a percentage of food intake compared to the saline-injected control group.
as §2, with “saline (control)” for “saline”

rats = details: intracerebroventricular (ICV); cited from earlier work
[6] = IN 0.3 mg/kg once daily, listed as Palm^11-PrRP31

CCCCCCCCCCC[C@@H](C[C@@H]1OC(=O)[C@H]1CCCCCC)OC(=O)[C@H](CC(C)C)NC=O [Orlistat]
side effects [1]: diarrhea

CC(C)CC(N(C)C)C1(c2ccc(Cl)cc2)CCC1 (stereo not drawn) [Sibutramine]
side effects [1]: increase the risk of heart disease

CCCCCCCCCCCCCCCC(=O)N[C@@H](CCC(=O)NCCCC[C@H](NC(=O)[C@@H](NC(=O)[C@H](CCC(=O)O)NC(=O)[C@H](CCSC)NC(=O)[C@H](CO)NC(=O)[C@H](Cc1c[nH]cn1)NC(=O)[C@H](CCCNC(=N)N)NC(=O)[C@H](Cc1c[nH]cn1)NC(=O)[C@@H](NC(=O)[C@H](CCCNC(=N)N)NC(=O)[C@@H](N)CO)[C@@H](C)O)[C@@H](C)CC)C(=O)N[C@H](C(=O)N1CCC[C@H]1C(=O)N[C@@H](CC(=O)O)C(=O)N[C@H](C(=O)N[C@@H](CC(N)=O)C(=O)N1CCC[C@H]1C(=O)N[C@@H](C)C(=O)N[C@@H](Cc1c[nH]c2ccccc12)C(=O)N[C@@H](Cc1ccc(O)cc1)C(=O)N[C@@H](C)C(=O)N[C@@H](CO)C(=O)N[C@@H](CCCNC(=N)N)C(=O)NCC(=O)N[C@H](C(=O)N[C@@H](CCCNC(=N)N)C(=O)N1CCC[C@H]1C(=O)N[C@H](C(=O)NCC(=O)N[C@@H](CCCNC(=N)N)C(=O)N[C@@H](Cc1ccccc1)C(N)=O)C(C)C)[C@@H](C)CC)[C@@H](C)CC)[C@@H](C)O)C(=O)O [palm^11-PrRP31] (H-SRTHRHSMEIK([γGlu-Palmitoyl])TPDINPAWYASRGIRPVGRF-NH2)
anti-obesity and anti-diabetic effects [2]: anti-obesity and anti-diabetic effects | blood glucose (blood glucose [3]): decreased blood glucose | potency among analogues of PrRP31 (GPR10): most potent analogue of the natural peptide PrRP31 | glycated hemoglobin (HbAlc) ([4]; IN 0.3 mg/kg once daily): significant decrease in blood glycated hemoglobin | glycated hemoglobin (HbAlc) [4, 6]: significantly reduced glycated hemoglobin | glycated hemoglobin (HbAlc) ([4]; IP 5 mg/kg once daily): significantly reduced glycated hemoglobin | blood glucose (blood glucose [5]): decreased blood glucose | significance P vs. saline, change in weight (obese C57BL/6 mice; FIG. 4, IN 0.3 mg/kg, SC 5 mg/kg twice daily, ANOVA, Dunnett's): < 0.001 | body weight change (obese C57BL/6 mice; IN 0.3 mg/kg (twice daily, 14 days)): reduced weight; also recorded: highly significant weight reduction | body weight change (obese C57BL/6 mice; IN 0.3 mg/kg (twice daily, 14 days), listed as Palm^11-PrRP31): highly significant weight reduction | body weight change (obese C57BL/6 mice; SC 5 mg/kg twice daily, 14 days): highly significant weight reduction | significance P vs. saline, change in weight (obese WKY rats; FIG. 2, IN 0.3 mg/kg, IP 5 mg/kg, ANOVA, Dunnett's): < 0.001 | IN dose lower than IP dose for the same weight reduction (obese WKY rats; IN 0.3 mg/kg vs. IP dose, rats): 16 times lower | weight change (obese WKY rats; IN 0.3 mg/kg once daily): reduced weight; also recorded: highly significant weight reduction | weight change (obese WKY rats; [6]): reduced the weight of rats after chronic administration to the same extent | weight change (obese WKY rats; IP 5 mg/kg once daily, 5 mg/kg): highly significant weight reduction | weight change (obese WKY rats; IP 5 mg/kg once daily, listed as Palm^11-PrRP31, 5 mg/kg): reduced the weight of rats after chronic administration to the same extent | significance P vs. saline, cumulative food intake (fasted C57BL/6 mice; FIG. 1, SC 5 mg/kg, IN 0.01 and 0.1 mg/kg, ANOVA, Dunnett's): < 0.001 | IN dose relative to SC dose for the same reduction in food intake, in words (fasted C57BL/6 mice; IN 0.01 and 0.1 mg/kg vs. SC 5 mg/kg): an order of magnitude lower dose | IN dose lower than SC dose to achieve the same effect on food intake (fasted C57BL/6 mice; IN vs. SC, feeding test in mice): 1-2 orders of magnitude | food intake (fasted C57BL/6 mice; IN 0.01 mg/kg, vs. saline / SC 5 mg/kg): same reduction in food intake; also recorded: significantly reduced food intake | food intake (fasted C57BL/6 mice; IN 0.01 mg/kg, vs. saline / SC 5 mg/kg, listed as Palm^11-PrRP31): reduced food intake in fasted mice very significantly and over a long period of time, to the same extent | food intake (fasted C57BL/6 mice; IN 0.1 mg/kg, vs. saline / SC 5 mg/kg): same reduction in food intake; also recorded: significantly reduced food intake | food intake (fasted C57BL/6 mice; IN 0.1 mg/kg, vs. saline / SC 5 mg/kg, listed as Palm^11-PrRP31): reduced food intake in fasted mice very significantly and over a long period of time, to the same extent | food intake (fasted C57BL/6 mice; SC 5 mg/kg, vs. saline, 5 mg/kg): highly significant (P<0.001) reduction in food intake; also recorded: significantly reduced food intake | food intake (fasted C57BL/6 mice; SC 5 mg/kg, vs. saline, listed as Palm^11-PrRP31, 5 mg/kg): reduced food intake in fasted mice very significantly and over a long period of time

PrRP31: natural prolactin-releasing peptide form containing 31 amino acids (SRTHRHSMEIRTPDINPAWYASRGIRPVGRF; ends and bridges not checked; UniProt P81277 23-53, looked up)
food intake (rats): significant short-term reduction in food intake | weight (rats): weight loss
